Results as given in BindingDB's records for PubMed 33486199 (Queen Mary University of London, 2021).

Target: T1, fMet-Leu-Phe receptor (Homo sapiens, UniProt P21462)
T1 sequence (P21462 whole entry): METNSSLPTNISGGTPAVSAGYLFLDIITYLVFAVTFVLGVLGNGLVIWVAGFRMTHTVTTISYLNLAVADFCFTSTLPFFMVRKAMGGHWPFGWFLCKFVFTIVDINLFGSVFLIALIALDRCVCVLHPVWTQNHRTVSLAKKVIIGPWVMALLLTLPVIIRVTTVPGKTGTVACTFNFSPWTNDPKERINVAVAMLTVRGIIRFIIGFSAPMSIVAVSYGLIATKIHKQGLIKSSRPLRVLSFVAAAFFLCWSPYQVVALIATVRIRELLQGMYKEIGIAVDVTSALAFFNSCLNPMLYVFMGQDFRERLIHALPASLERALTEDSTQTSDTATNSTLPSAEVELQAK
Assay: Agonist activity at human FPR1 expressed in CHO cells assessed as cAMP level incubated for 1.5 hr by HTRF assay

| EC50 [µM] | SMILES |
| --- | --- |
| > 10 | O=C(Nc1ccc(Cl)cc1F)N[C@@H]1CCN(c2ccc(-c3cnn(C(F)F)c3)c(F)c2F)C1=O [US10676431, Example 79] |
| > 10 | CP(C)(=O)c1ccccc1-c1ccc(N2CC(CO)[C@@H](NC(=O)Nc3ccc(Cl)cc3F)C2=O)c(F)c1F (some centres not stated) [US10676431, Example 125] |
